Assay results reported in ChEMBL document CHEMBL5674860, “Optimized Dual-Glo Assay to identify co-culture-induced drug vulnerabilities in 3D CRC models” (2024).

Key:
Format in all cases: functional, Homo sapiens
Design in all cases: dose or concentration left out as unconfirmed
Colon cancer organoid [1] = experiment: Optimized Dual-Glo assay to identify co-culture induced drug vulnerabilities using donated chemical probes and chemogenomics kinase set in O14 CRC organoid and F14 CAF mono and co-culture. […] Cell viability is reported both mono and co-culture models.
Colon cancer organoid [2] = experiment: Optimized Dual-Glo assay to identify co-culture induced drug vulnerabilities using donated chemical probes and chemogenomics kinase set in O20 CRC organoid and F20 CAF mono and co-culture. […] Cell viability is reported both mono and co-culture models.
Colon cancer organoid [3] = experiment: Optimized Dual-Glo assay to identify co-culture induced drug vulnerabilities using donated chemical probes and chemogenomics kinase set in O06 CRC organoid and F06 CAF mono and co-culture. […] Cell viability is reported both mono and co-culture models.
[4] = Culture type Co-Culture, Transduced with Lucferase2-P2A-EGFP lentivirus
[5] = Culture type Co-Culture, Transduced with Renilla-dsRed lentivirus
[6] = Culture type Mono-Culture, Transduced with Lucferase2-P2A-EGFP lentivirus
[7] = Culture type Mono-Culture, Transduced with Renilla-dsRed lentivirus

SMILES	Cell Viability (Colon cancer organoid [1]; [4]) [%]	Cell Viability (Colon cancer organoid [1]; [5]) [%]	Cell Viability (Colon cancer organoid [1]; [6]) [%]	Cell Viability (Colon cancer organoid [1]; [7]) [%]	Cell Viability (Colon cancer organoid [2]; [4]) [%]	Cell Viability (Colon cancer organoid [2]; [5]) [%]	Cell Viability (Colon cancer organoid [2]; [6]) [%]	Cell Viability (Colon cancer organoid [2]; [7]) [%]	Cell Viability (Colon cancer organoid [3]; [4]) [%]	Cell Viability (Colon cancer organoid [3]; [5]) [%]	Cell Viability (Colon cancer organoid [3]; [6]) [%]	Cell Viability (Colon cancer organoid [3]; [7]) [%]
CC[C@H](CO)Nc1nc(NCc2ccccc2)c2ncn(C(C)C)c2n1 [SELICICLIB]	135.109	107.454	106.101	84.912	126.322	75.3934	94.0529	97.9285	93.234	112.199	108.084	105.93
C[C@@H]1CCc2ncc(F)cc2[C@H]2CCCN2c2ccn3ncc(c3n2)C(=O)N1 [SELITRECTINIB]	80.4223	107.034	125.619	100.351	166.265	73.3915	102.231	92.0834	101.733	118.761	174.799	120.583
Cc1cc(F)c(C(=O)Nc2cccc(-c3nncn3C(C)C)n2)cc1-n1cnc(C2CC2)c1 [SELONSERTIB]	131.466	127.666	127.2	83.0493	141.674	89.2485	97.5113	87.9562	89.6649	105.018	105.834	92.1767
Cn1cnc2c(F)c(Nc3ccc(Br)cc3Cl)c(C(=O)NOCCO)cc21 [SELUMETINIB]	41.0506	90.7653	35.0637	76.2393	54.0546	152.417	80.7355	77.3788	107.697	90.3962	52.8036	90.0191
O=C(O)c1ccc2c(c1)nc(Nc1cccc(Cl)c1)c1ccncc12 [SILMITASERTIB]	93.7278	109.514	89.7197	119.06	158.738	81.7658	95.6239	79.8512	108.166	80.6873	78.7074	100.788
N#Cc1cnc(Nc2cc(NC[C@H]3CNCCO3)c(C(F)(F)F)cn2)cn1 [SRA-737]	41.9223	191.286	52.6101	101.86	103.278	133.202	58.7772	96.135	89.9461	120.027	70.513	117.124
O=C1c2ccc(Nc3ccc(F)cc3F)cc2CCc2ccc(OC[C@H](O)CO)cc21 [Skepinone-L]	150.905	93.4936	165.429	90.897	88.3042	86.6611	113.922	95.9781	115.343	88.0925	155.18	90.6486
